Measurements: patent EP1773779B1, “NICOTINIC RECEPTOR AGONISTS FOR THE TREATMENT OF INFLAMMATORY DISEASES” (Université Laval, priority 2004, dated 2006)

How the values were obtained:
[1] = system: Tumor necrosis factor (TNF) release; assay: TNF release by LPS-stimulated human blood monocytes (ELISA); assay type: cell-based
Description: Human monocytes were isolated from the blood of asthmatic patients by Ficoll-paque density gradient, let to adhere to tissue culture plates and stimulated with LPS (100ng/ml) for 18 hours at 37°C with or without increasing concentrations of nicotine. The release of TNF, a potent pro-inflammatory mediator, was measured in the cell culture supernatant by the ELISA method. Results are expressed as a percentage release from LPS-stimulated untreated cells (Fig. 28).
Tumor necrosis factor (TNF) is a mediator released in inflammatory states. Human blood monocytes were stimulated in vitro with lipopolysaccharide (LPS) to produce large amounts of TNF, increasing doses of ASM-002 were added and the levels of TNF were measured (Fig. 37, EC50= 3µM, n=6, p= 0,0045 at 5 µm, 0,0014 at 10 µm and 0,0003 at 50 µm).

[2] = system: Ovalbumin-sensitized animals; assay: Lung resistance to metacholine in mouse model of asthma (Flexi-vent); assay type: in vivo, mice; details: ASM-002 4mg/kg intra-nasally 3 days and 10 minutes prior to challenge; Salbutamol 10 minutes before; Fig. 31
Description: Lung response to a broncho-constrictive agent, metacholine, was measured by a Flexi-vent® apparatus. Ovalbumin-sensitized animals were treated intra-nasally with ASM-002 (4mg/kg) during 3 days and 10 minutes prior to the metacholine challenge and compared to untreated OVA-sensitized animals. A negative control group of un-sensitized animals and a positive control group that received Salbutamol (Ventolin) 10 minutes before the metacholine challenge were also included.

[3] = system: bronchial rings from dog's lungs; assay: Isometric study on dog bronchial rings pre-contracted with metacholine; details: cumulative doses of ASM-002; Fig. 35, p=0.004
Description: (§1) As described previously, tracheal or bronchial rings were mounted isometrically to force transducers in organ baths containing Krebs bicarbonate solution at 37°C and bubbled with 95% O2- 5% CO2,pre-contracted with submaximal concentration of metacholine cumulative doses of ASM-002 added. Changes of tension are recorded.

[4] = system: dogs naturally sensitized to the roundworm Ascaris suum; assay: Dog asthma model: cellular inflammation in bronchoalveolar lavages; assay type: in vivo; details: ASM-002 8 mg/kg (4mg/kg 2x day in the food), prednisone 1mg/kg 1x day in the food, n = 12; Fig. 32
Description: (§2) In this model 12 dogs naturally sensitized to the roundworm Ascaris suum were used in a cross-over study design. Four groups of 3 dogs were randomly formed, exposed to the allergen, and each animal was left either untreated or received alternalively, ASM-002 (4mg/kg 2x day in the food), or prednisone (1mg/kg 1x day in the food), the most commonly used corticosteroid drug used to treat inflammation in asthma.
Cellular inflammation was evaluated in the bronchoalveolar lavages.

[5] = system: dogs naturally sensitized to the roundworm Ascaris suum; assay: Dog model of lung hyper-responsiveness (metacholine, lung resistance); assay type: in vivo; details: 12 hyperresponsive dogs, increasing concentrations of metacholine; Fig. 33
Description: as §2
Hyper-responsiveness is described as the capacity of the lung to react (to increase lung resistance) to a non-specific external stimuli like metacholine or to allergens. A hyper-responsive allergen-sensitized dog (asthmatic) will react to lower concentrations of metacholine compared to a non allergic dog. Similarly, improvement in lung hyper-responsivenes is shown by an increase in metacholine concentrations necessary to induce the same level of lung resistance.
Increasing concentrations of metacholine were administered with or without treatment with ASM-002 or Prednisone™ and lung resistance recorded.

[6] = system: mouse tracheal airway smooth muscle; assay: Isometric study on isolated mouse tracheal rings pre-contracted with metacholine; details: cumulative doses of ASM-002; Fig. 34, p=0.002
Description: Tracheal rings were mounted isometrically to force transducers in organ baths containing Krebs bicarbonate solution at 37°C and bubbled with 95% O2- 5% CO2, pre-contracted with submaximal concentration of metacholine (10^-5) and cumulative doses of the analogs were added to the baths. Changes of tension are recorded. Results are expressed as a percentage of maximal contraction (Fig. 29).
as §1

[7] = system: Ovalbumin-sensitized mice; assay: Lung inflammation in ovalbumin-sensitized mice (cells in broncho-alveolar lavage); assay type: in vivo; details: intra-nasally 0.5 to 4 mg/kg/d for 3 days, n = 8, Fig. 30
Description: Ovalbumin-sensitized mice (ri=8) were challenged with the allergen and simultaneously treated intra-nasally with increasing concentrations of ASM-002 (0.5 to 4 mg/kg/d) for 3 days. The number of cells recovered by broncho-alveolar lavage was used as a measure of lung inflammation.

[8] = system: bronchial rings from resected human lungs; assay: Isometric study on human bronchial rings pre-contracted with metacholine; details: cumulative doses of ASM-002; Fig. 36
Description: as §1

[9] = system: Leukotriene C4 (LTC4)production; assay: LTC4 production by PAF-stimulated blood eosinophils (enzyme immunoassay); assay type: cell-based, Human; details: for LTC4: pre-incubated 18hours with analogs, then 1 µM PAF, untreated 1725.80
Description: Blood eosinophils, the most increased inflammatory cells in asthma, were isolated by negative selection using bead-conjugated anti-CD16 monoclonal antibody and magnetic activating cell sorting. Cells were pre-incubated for 18hours with the various DMPP analogs and then stimulated with 1 µM platelet-activating factor (PAF) to produce LTC4 which was measured by enzyme immunoassay. […] Table 1 Effects of DMPP and analogs on LTC4 release.
Leukotriene C4 (LTC4) is a inflammatory lipid mediator highly produced in asthma, it is released in large amounts by blood eosinophils.
Human blood eosinophils were isolated from blood of asthmatic patients, stimulated in vitro with platelet activating factor (PAF) to produce large amounts of LTC4 , and treated or not with 80 µM ASM-002.

1,1-dimethyl-4-phenylhomopiperazinium iodide [ASM-002]
EC50 ([1]; LPS-stimulated human blood monocytes, increasing doses, n=6, Fig. 37, read-out: EC50, inhibition of TNF release): 3000 nM | TNF release ([1]; all drugs at 40 µM, mean of 5 subjects, Fig. 38): inhibits TNF release | lung resistance induced by metacholine [2]: significant reduction (return to baseline levels) | relaxing effect on pre-contracted bronchi [3]: relaxing effect | cellular inflammation in the lungs [4]: inhibits significantly the cellular inflammation | dogs with decreased lung resistance / improved hyper-responsiveness [5]: 7 out of 12 | relaxing effect on pre-contracted tracheas [6]: relaxing effect | ED50, cellular inflammation in the lungs [7]: 0.71 mg/kg | relaxing effect on pre-contracted bronchi [8]: relaxing effect | LTC4 production ([9]; 80 µM, PAF-stimulated eosinophils of asthmatic patients, 6 patients, Fig. 39, p=0.0007): significant inhibition | LTC4 [9]: 246.40 pg/mL

CCC[N+]1(C)CCN(c2ccccc2)CC1 [ASM-004]
LTC4 [9]: 601.60 pg/mL

CC[N+]1(CC)CCN(c2ccccc2)CC1 [ASM-005]
TNF release ([1]; monocytes from asthmatic patients, LPS (100ng/ml) 18 hours at 37°C, increasing concentrations, Fig. 28): Except for ASM-005, all analogs tested had an inhibitory effect on TNF release

C[N+]1(C)CCN(c2ccccc2)CC1 [DMPP, Dimethylphenylpiperazinium, reference compound]
LTC4 [9]: 545.00 pg/mL

C[C@]12C=CC(=O)C=C1CC[C@@H]1[C@@H]2C(=O)C[C@@]2(C)[C@H]1CC[C@]2(O)C(=O)CO [Prednisone, prednisone, reference compound]
dogs with decreased lung resistance / improved hyper-responsiveness [5]: None of the 12 dogs

CC(C)(C)NCC(O)c1ccc(O)c(CO)c1 (stereo not shown) [Salbutamol, reference compound]
lung resistance induced by metacholine [2]: This effect is similar to that obtained with Salbutamol
